Assay results taken from patent US20260053171A1, “METHANOGEN INHIBITORS” (AGRIZERONZ LIMITED PARTNERSHIP, priority 2022, published 2026).

Tested on: methane production in rumen fluid
Assay: Rumen in vitro (RIV) assay, methane production from rumen fluid incubations
Type: cell-based, cattle
Details: Bos taurus, read-out: RIV % methane reduction +/− SD
Method in brief: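 Rumen fluid from two fistulated cattle diluted 12 ml in 48 ml buffer with ryegrass substrate, incubated in sealed bottles at 39° C for 24-48 h in duplicate. Inhibitors added in DMF (stocks 1000-fold above highest assay level); total gas, methane and H2 measured automatically; 30 μM BES positive control, no-inhibitor negative control.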

Row | Compound | inhibition at 2 µM [%] | inhibition at 10 µM [%] | inhibition at 50 µM [%]
1 | O=C(O)CCC(=O)N1N=C(c2ccc(-c3ccc(CC(F)(F)F)cc3)cc2)CC1c1ccc2nccnc2c1 (centres unmarked) [Compound 88, 4-Oxo-4-(5-(quinoxalin-6-yl)-3-(4′-(2,2,2-trifluoroethyl)-[1,1′-biphenyl]-4-yl)-4,5-dihydro-1H-pyrazol-1-yl)butanoic acid] | < 5 | 83 ± 1.1 | 
2 | O=C(O)CCC(=O)N1N=C2c3cc(-c4ccccc4)ccc3CCC2C1c1ccc2nccnc2c1 (centres unmarked) [Compound 74, 4-Oxo-4-(8-phenyl-3-(quinoxalin-6-yl)-3,3a,4,5-tetrahydro-2H-benzo[g]indazol-2-yl)butanoic acid] | 9 ± 1.9 | 87.8 ± 0.7 | 97.2 ± 0.5
3 | O=C(O)CCCC(=O)N1N=C(c2ccc(Cl)cc2)CC1c1ccc2nccnc2c1 (centres unmarked) [Compound 50, 5-(3-(4-Chlorophenyl)-5-(quinoxalin-6-yl)-4,5-dihydro-1H-pyrazol-1-yl)-5-oxopentanoic acid] |  |  | 66.4 ± 2.9
4 | CN(C)S(=O)(=O)NC(=O)CCC(=O)N1N=C(c2ccc(Cl)cc2)CC1c1ccc2nccnc2c1 (centres unmarked) [Compound 59, 4-(3-(4-Chlorophenyl)-5-(quinoxalin-6-yl)-4,5-dihydro-1H-pyrazol-1-yl)-N—(N,N-dimethylsulfamoyl)-4-oxobutanamide] | 10.6 ± 2.5 | 86.7 ± 7 | 94.4 ± 4
5 | O=C(O)CCC(=O)N1N=C(c2ccc(-c3ccc4c(c3)OCO4)cc2)CC1c1ccc2nccnc2c1 (centres unmarked) [Compound 103, 4-(3-(4-(Benzo[d][1,3]dioxol-5-yl)phenyl)-5-(quinoxalin-6-yl)-4,5-dihydro-1H-pyrazol-1-yl)-4-oxobutanoic acid] |  | 24.8 ± 6.2 | 
6 | CCCCOc1ccc(-c2ccc(C3=NN(C(=O)CCC(=O)O)C(c4ccc5nccnc5c4)C3)cc2)cc1 (centres unmarked) [Compound 80, 4-(3-(4′-Butoxy-[1,1′-biphenyl]-4-yl)-5-(quinoxalin-6-yl)-4,5-dihydro-1H-pyrazol-1-yl)-4-oxobutanoic acid] | 21.9 ± 4.3 | 89.4 ± 2.5 | 
7 | Cc1ccc(S(=O)(=O)NC(=O)CCC(=O)N2N=C(c3ccc(Cl)cc3)CC2c2ccc3nccnc3c2)cc1 (centres unmarked) [Compound 125, 4-(3-(4-Chlorophenyl)-5-(quinoxalin-6-yl)-4,5-dihydro-1H-pyrazol-1-yl)-4-oxo-N-tosylbutanamide] |  | 21.8 ± 5.7 | 
8 | O=C(O)CCC(=O)N1N=C(c2ccc(-c3ccc(F)cc3)cc2)CC1c1ccc2nccnc2c1 (centres unmarked) [Compound 16, 4-(3-(4′-Fluoro-[1,1′-biphenyl]-4-yl)-5-(quinoxalin-6-yl)-4,5-dihydro-1H-pyrazol-1-yl)-4-oxobutanoic acid] | < 5 | 77.5 ± 2.1 | 96.6 ± 0.2
9 | O=C(O)CCC(=O)N1N=C(c2ccc(Cl)cc2)CC1c1cnc2ccccc2n1 (centres unmarked) [Compound 32, 4-(3-(4-Chlorophenyl)-5-(quinoxalin-2-yl)-4,5-dihydro-1H-pyrazol-1-yl)-4-oxobutanoic acid] |  | < 5 | 81 ± 2
10 | COc1ccc(C2CC(c3ccc(Cl)cc3)=NN2C(=O)CCC(=O)O)c(OC)c1 (centres unmarked) [Compound 42, 4-(3-(4-Chlorophenyl)-5-(2,4-dimethoxyphenyl)-4,5-dihydro-1H-pyrazol-1-yl)-4-oxobutanoic acid] |  | 10.5 ± 3.5 | 80 ± 4.7
11 | O=C(O)CCC(=O)N1N=C2c3ccc(-c4ccc(OC(F)(F)F)cc4)cc3CCC2C1c1ccc2nccnc2c1 (centres unmarked) [Compound 76, 4-Oxo-4-(3-(quinoxalin-6-yl)-7-(4-(trifluoromethoxy)phenyl)-3,3a,4,5-tetrahydro-2H-benzo[g]indazol-2-yl)butanoic acid] | 21.1 ± 3.2 | 77.3 ± 1.3 | 96.5
12 | COc1cccc(-c2cccc(C3=NN(C(=O)CCC(=O)O)C(c4ccc5nccnc5c4)C3)c2)c1 (centres unmarked) [Compound 97, 4-(3-(3′-Methoxy-[1,1′-biphenyl]-3-yl)-5-(quinoxalin-6-yl)-4,5-dihydro-1H-pyrazol-1-yl)-4-oxobutanoic acid] |  | 5.4 ± 0.2 | 76 ± 1.4
13 | O=C(O)CCC(=O)N1N=C(c2ccc(-c3ccc(OCC(F)(F)F)cc3)cc2)CC1c1ccc2nccnc2c1 (centres unmarked) [Compound 92, 4-Oxo-4-(5-(quinoxalin-6-yl)-3-(4′-(2,2,2-trifluoroethoxy)-[1,1′-biphenyl]-4-yl)-4,5-dihydro-1H-pyrazol-1-yl)butanoic acid] | 32.1 ± 0.8 | 81.4 ± 3.1 | 
14 | O=C(O)CCC(=O)N1N=C(c2ccc(-c3ccccc3)cc2F)CC1c1ccc2nccnc2c1 (centres unmarked) [Compound 109, 4-(3-(3-Fluoro-[1,1′-biphenyl]-4-yl)-5-(quinoxalin-6-yl)-4,5-dihydro-1H-pyrazol-1-yl)-4-oxobutanoic acid] |  | 40.4 ± 8.1 | 
15 | CN(C)S(=O)(=O)NC(=O)CCC(=O)N1N=C(c2cccc(-c3ccccc3)c2)CC1c1ccc2nccnc2c1 (centres unmarked) [Compound 127, 4-(3-([1,1′-Biphenyl]-3-yl)-5-(quinoxalin-6-yl)-4,5-dihydro-1H-pyrazol-1-yl)-N—(N,N-dimethylsulfamoyl)-4-oxobutanamide] | 16.8 ± 0.7 | 84.1 ± 3 | 
16 | O=C(O)CCC(=O)N1N=C(c2ccc(-c3cccc(OC(F)(F)F)c3)cc2)CC1c1ccc2nccnc2c1 (centres unmarked) [Compound 21, 4-Oxo-4-(5-(quinoxalin-6-yl)-3-(3′-(trifluoromethoxy)-[1,1′-biphenyl]-4-yl)-4,5-dihydro-1H-pyrazol-1-yl)butanoic acid] | 15.8 ± 1.1 | 91.9 ± 1.5 | 97.9
17 | O=C(O)CCC(=O)N1N=C(c2ccc(Cl)cc2)CC1c1ccc2cccnc2c1 (centres unmarked) [Compound 34, 4-(3-(4-Chlorophenyl)-5-(quinolin-7-yl)-4,5-dihydro-1H-pyrazol-1-yl)-4-oxobutanoic acid] |  |  | 22 ± 2.1
18 | CC(C)Oc1ccc(-c2ccc(C3=NN(C(=O)CCC(=O)NS(C)(=O)=O)C(c4ccc5nccnc5c4)C3)cc2)cc1 (centres unmarked) [Compound 117, 4-(3-(4′-Isopropoxy-[1,1′-biphenyl]-4-yl)-5-(quinoxalin-6-yl)-4,5-dihydro-1H-pyrazol-1-yl)-N-(methylsulfonyl)-4-oxobutanamide] | 9.1 ± 2.4 | 72.5 ± 4 | 
19 | O=C(O)CCC(=O)N1N=C(c2ccc(-c3cccnc3)cc2)CC1c1ccc2nccnc2c1 (centres unmarked) [Compound 30, 4-Oxo-4-(3-(4-(pyridin-3-yl)phenyl)-5-(quinoxalin-6-yl)-4,5-dihydro-1H-pyrazol-1-yl)butanoic acid] |  |  | 9.3 ± 2.8
20 | CSc1ccc(C2=NN(C(=O)CCC(=O)O)C(c3ccc4nccnc4c3)C2)cc1 (centres unmarked) [Compound 62] |  |  | 31.8
21 | O=C(O)c1ccc(N2N=C(c3ccc(Cl)cc3)CC2c2ccc3nccnc3c2)cc1 (centres unmarked) [Compound 115, 4-(3-(4-Chlorophenyl)-5-(quinoxalin-6-yl)-4,5-dihydro-1H-pyrazol-1-yl)benzoic acid] |  | 20.1 ± 1.1 | 84 ± 10.6
22 | CC(C)c1ccc(-c2ccc(C3=NN(C(=O)CCC(=O)O)C(c4ccc5nccnc5c4)C3)cc2)cc1 (centres unmarked) [Compound 24, 4-(3-(4′-Isopropyl-[1,1′-biphenyl]-4-yl)-5-(quinoxalin-6-yl)-4,5-dihydro-1H-pyrazol-1-yl)-4-oxobutanoic acid] | 21.8 | 94.1 ± 0.3 | 97.8 ± 0.05
23 | O=C(O)CCC(=O)N1N=C(c2ccc(-c3ccc(C(F)(F)F)cc3)cc2)CC1c1ccc2nccnc2c1 (centres unmarked) [Compound 20, 4-Oxo-4-(5-(quinoxalin-6-yl)-3-(4′-(trifluoromethyl)-[1,1′-biphenyl]-4-yl)-4,5-dihydro-1H-pyrazol-1-yl)butanoic acid] |  | 37.2 ± 5.9 | 
24 | O=C(O)CCC(=O)N1N=C(c2ccc(-c3ccc(OC(F)F)cc3)cc2)CC1c1ccc2nccnc2c1 (centres unmarked) [Compound 65, 4-(3-(4′-(Difluoromethoxy)-[1,1′-biphenyl]-4-yl)-5-(quinoxalin-6-yl)-4,5-dihydro-1H-pyrazol-1-yl)-4-oxobutanoic acid] | 26.2 | 90.2 | 
25 | O=C(O)CCC(=O)N1N=C(c2cccc(-c3ccccc3)c2)CC1c1ccc2nccnc2c1 (centres unmarked) [Compound 13, 4-(3-([1,1′-Biphenyl]-3-yl)-5-(quinoxalin-6-yl)-4,5-dihydro-1H-pyrazol-1-yl)-4-oxobutanoic acid] | 5 ± 0.4 | 74.4 ± 3.3 | 97.2 ± 0.1
26 | CC(C)Cc1ccc(-c2ccc(C3=NN(C(=O)CCC(=O)O)C(c4ccc5nccnc5c4)C3)cc2)cc1 (centres unmarked) [Compound 86, 4-(3-(4′-Isobutyl-[1,1′-biphenyl]-4-yl)-5-(quinoxalin-6-yl)-4,5-dihydro-1H-pyrazol-1-yl)-4-oxobutanoic acid] |  | 29 ± 8.6 | 
27 | O=C(O)CCCN1N=C(c2ccc(Cl)cc2)CC1c1ccc2nccnc2c1 (centres unmarked) [Compound 53, 4-(3-(4-Chlorophenyl)-5-(quinoxalin-6-yl)-4,5-dihydro-1H-pyrazol-1-yl)butanoic acid] |  | 19.4 ± 1.9 | 82.1 ± 1.2
28 | O=C(O)CCC(=O)N1N=C(c2ccc(C(F)(F)F)cc2)CC1c1ccc2nccnc2c1 (centres unmarked) [Compound 5, 4-Oxo-4-(5-(quinoxalin-6-yl)-3-(4-(trifluoromethyl)phenyl)-4,5-dihydro-1H-pyrazol-1-yl)butanoic acid] |  |  | 46.5 ± 2.7
